Results as given in paper PMC8151276, “An Integrated Approach toward NanoBRET Tracers for Analysis of GPCR Ligand Engagement” (Molecules, 2021).
Values belong to the molecule of their own block, whether it stands above or below them.

What was measured:
Assay type in all cases: binding
FZD6 = target: T1, FZD6 (Homo sapiens, UniProt O60353); experiment: NanoBRET screen HiBiT-FZD6 in HEK293
T1 construct: purchased Promega (in-house HiBiT-GPCR construct library, NanoBRET)
T1 sequence (O60353 19-706): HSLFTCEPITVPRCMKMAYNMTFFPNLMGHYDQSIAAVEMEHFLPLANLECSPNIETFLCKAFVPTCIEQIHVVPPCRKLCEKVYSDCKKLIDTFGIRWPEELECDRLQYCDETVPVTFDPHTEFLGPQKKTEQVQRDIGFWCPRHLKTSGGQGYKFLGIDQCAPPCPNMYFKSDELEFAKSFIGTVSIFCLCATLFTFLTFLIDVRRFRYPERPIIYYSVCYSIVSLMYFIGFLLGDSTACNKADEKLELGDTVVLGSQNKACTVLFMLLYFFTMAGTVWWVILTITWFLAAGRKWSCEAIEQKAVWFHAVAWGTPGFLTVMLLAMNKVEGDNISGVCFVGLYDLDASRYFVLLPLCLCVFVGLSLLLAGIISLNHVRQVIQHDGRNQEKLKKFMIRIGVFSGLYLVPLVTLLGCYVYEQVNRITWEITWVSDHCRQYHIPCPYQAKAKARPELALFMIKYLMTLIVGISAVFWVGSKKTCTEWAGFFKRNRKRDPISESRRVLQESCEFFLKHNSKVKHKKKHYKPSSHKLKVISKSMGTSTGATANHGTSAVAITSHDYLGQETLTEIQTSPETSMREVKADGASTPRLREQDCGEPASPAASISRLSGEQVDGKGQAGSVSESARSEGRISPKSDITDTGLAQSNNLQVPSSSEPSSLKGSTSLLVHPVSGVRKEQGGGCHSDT
Protocol: (§1) Each tracer candidate was screened across the entire library of HiBiT-GPCR constructs using NanoBRET as the detection modality. As depicted in Figure 4A, the specificity of interactions was evaluated through decrease in BRET due to competitive displacement of a bound tracer by excess parental compound. Each tracer was analyzed for binding to each HiBiT-GPCR fusion in the absence and in the presence of competing parental compound. Briefly, HEK293 cells were transfected with HiBiT-GPCR constructs diluted into promoterless DNA to reduce expression and maximize translocation to the cell surface. Each tracer candidate was then screened at concentrations of 1 μM and 0.1 μM across cells expressing these fusions. Cells were treated for 1.5 h with tracer either alone or in the presence of 20 μM competing parental compound (i.e., control). BRET was measured upon addition of purified LgBiT and subsequent complementation with HiBiT genetically fused to a GPCR. The specificity of interactions was assessed through a decrease in BRET signal due to competitive displacement of the bound tracer. To further gauge the robustness of these interactions, the fold response over the control (i.e., BRETtracer/BRETcontrol) was calculated. We chose a 1.5-fold response, which translates to ≥7-fold signal over noise as the minimal threshold required to score an interaction as positive. […]. Below we highlight the screening results obtained for our exemplary fluorescent tracers based on Clozapine, Amitriptyline and AZD1283.
(§2) HiBiT-GPCR DNA constructs were diluted in 10 mM Tris pH 8 to a final concentration of 0.01 μg/μL, arrayed in 96-well plates and stored at −20 °C. For transfection, HEK293 cells were suspended in Opti-MEM (without phenol red) supplemented with 2% fetal bovine serum (Seradigm) and 100 units/mL penicillin–streptomycin (Gibco) at a final concentration of 220,000 cells/mL and dispensed into white 96-well plates at 90 μL/well. Subsequent transfections and screens were carried using an Agilent Bravo Automated Liquid Handling Platform. First, the 96-well HiBiT DNA arrays were diluted 25-fold in Opti-MEM (without serum or phenol red) to a final concentration of 0.0004 μg/μL and 20 μL of the diluted DNAs were transferred into new 96-well plates. Next, promoterless carrier DNA (1 μg/μL) was diluted 25-fold (0.04 μg/μL) and then dispensed into the diluted arrays at 20 μL/well. Following brief mixing, Viafect transfection reagent (Promega) diluted 16-fold into Opti-MEM was dispensed into the plates at 40 μL/well. After mixing by pipetting, plates were incubated for 10 min on the pipetting station deck. The DNA-transfection reagent complexes were then added to plates containing cells. To facilitate the screen, 10 μL of DNA-transfection reagent complexes were added in duplicates to the top 4 and bottom 4 rows, resulting in two identical 48-well arrays per plate. Plates with transfected cells were incubated for 18–20 h at 37 °C/5% CO2. A screen of each tracer across the entire library using two different concentrations requires duplicate plates of transfected cells. Depending on the number of tracers being screened, transfections can be scaled up using the same ratios. The next day, for each tracer, four 20× screening solutions in tracer dilution buffer (Promega) were prepared: two duplicates at final concentration of 20 μM and two duplicates at a final concentration of 2 μM. A competing unmodified compound was added to one of each duplicate at a final concentration of 400 μM. The four resulting solutions were diluted 4-fold in Opti-MEM without serum or phenol red to generate 5× solutions (5 µM and 0.5 µM tracer +/− 100 μM competing compound). To screen the library, a BioTek MultiFlo FX liquid dispenser was used to dispense 22.5 µL of tracer solution to the top 4 rows and 22.5 µL tracer + competing compound solution to the 4 bottom rows. Plates were briefly mixed on an orbital shaker and incubated for 1.5 h at room temperature. […]

GRM5 = target: T2, GRM5 (Homo sapiens, UniProt P41594); experiment: NanoBRET screen HiBiT-GRM5 in HEK293; settings: GRM5
T2 construct: purchased Promega (in-house HiBiT-GPCR construct library, NanoBRET)
Protocol: as §1, §2

P2RY13 = target: T3, P2RY13 (Homo sapiens, UniProt Q9BPV8); experiment: NanoBRET screen HiBiT-P2RY13 in HEK293
T3 construct: purchased Promega (in-house HiBiT-GPCR construct library, NanoBRET)
T3 sequence (Q9BPV8 1-354): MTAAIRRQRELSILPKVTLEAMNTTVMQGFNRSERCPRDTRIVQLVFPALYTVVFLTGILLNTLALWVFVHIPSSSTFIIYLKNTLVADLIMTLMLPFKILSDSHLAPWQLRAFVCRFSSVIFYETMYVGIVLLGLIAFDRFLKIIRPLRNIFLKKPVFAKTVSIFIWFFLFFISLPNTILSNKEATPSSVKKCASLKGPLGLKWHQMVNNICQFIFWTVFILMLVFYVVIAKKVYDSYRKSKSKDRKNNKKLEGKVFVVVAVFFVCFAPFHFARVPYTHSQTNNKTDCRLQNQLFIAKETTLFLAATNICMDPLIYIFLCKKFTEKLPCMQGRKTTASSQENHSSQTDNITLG
Protocol: as §1, §2

HTR1E = target: T4, HTR1E (Homo sapiens, UniProt P28566); experiment: NanoBRET screen HiBiT-HTR1E in HEK293
T4 construct: purchased Promega (in-house HiBiT-GPCR construct library, NanoBRET)
Protocol: as §1, §2

[1] = tracer at 0.1μM, listed as amitriptyline-b-2-NB590
[2] = tracer at 1μM, listed as amitriptyline-b-2-NB590

T2 sequence (P41594 21-1212): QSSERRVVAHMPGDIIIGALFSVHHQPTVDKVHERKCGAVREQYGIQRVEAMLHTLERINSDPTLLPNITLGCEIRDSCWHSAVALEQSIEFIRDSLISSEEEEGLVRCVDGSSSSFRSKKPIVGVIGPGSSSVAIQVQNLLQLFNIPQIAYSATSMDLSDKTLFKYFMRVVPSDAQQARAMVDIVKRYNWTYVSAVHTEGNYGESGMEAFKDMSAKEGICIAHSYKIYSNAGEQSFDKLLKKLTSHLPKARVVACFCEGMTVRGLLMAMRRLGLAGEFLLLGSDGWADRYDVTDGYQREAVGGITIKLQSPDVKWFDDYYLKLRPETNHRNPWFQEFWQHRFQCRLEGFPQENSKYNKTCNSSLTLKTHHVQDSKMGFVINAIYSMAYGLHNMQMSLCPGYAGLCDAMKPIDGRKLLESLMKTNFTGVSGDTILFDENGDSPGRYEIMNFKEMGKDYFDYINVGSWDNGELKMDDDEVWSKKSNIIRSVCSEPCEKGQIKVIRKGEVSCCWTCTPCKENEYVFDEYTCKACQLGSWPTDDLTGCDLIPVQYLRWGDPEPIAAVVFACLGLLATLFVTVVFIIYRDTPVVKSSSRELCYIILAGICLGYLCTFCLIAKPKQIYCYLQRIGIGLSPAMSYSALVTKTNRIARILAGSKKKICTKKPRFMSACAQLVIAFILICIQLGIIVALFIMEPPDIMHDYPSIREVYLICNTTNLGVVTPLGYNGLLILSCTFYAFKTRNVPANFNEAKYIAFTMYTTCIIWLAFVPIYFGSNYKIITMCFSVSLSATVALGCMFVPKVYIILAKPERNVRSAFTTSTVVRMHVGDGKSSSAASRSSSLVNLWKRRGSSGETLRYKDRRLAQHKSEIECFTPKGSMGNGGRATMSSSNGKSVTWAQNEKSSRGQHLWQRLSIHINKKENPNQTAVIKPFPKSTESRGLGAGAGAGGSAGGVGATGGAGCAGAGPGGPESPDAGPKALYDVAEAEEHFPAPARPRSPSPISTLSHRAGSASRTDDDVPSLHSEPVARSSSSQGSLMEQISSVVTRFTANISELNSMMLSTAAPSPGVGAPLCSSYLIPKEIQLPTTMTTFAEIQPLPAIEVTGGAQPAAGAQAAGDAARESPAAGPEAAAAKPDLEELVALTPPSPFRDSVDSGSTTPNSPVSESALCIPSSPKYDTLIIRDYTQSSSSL
T4 sequence (P28566 whole entry): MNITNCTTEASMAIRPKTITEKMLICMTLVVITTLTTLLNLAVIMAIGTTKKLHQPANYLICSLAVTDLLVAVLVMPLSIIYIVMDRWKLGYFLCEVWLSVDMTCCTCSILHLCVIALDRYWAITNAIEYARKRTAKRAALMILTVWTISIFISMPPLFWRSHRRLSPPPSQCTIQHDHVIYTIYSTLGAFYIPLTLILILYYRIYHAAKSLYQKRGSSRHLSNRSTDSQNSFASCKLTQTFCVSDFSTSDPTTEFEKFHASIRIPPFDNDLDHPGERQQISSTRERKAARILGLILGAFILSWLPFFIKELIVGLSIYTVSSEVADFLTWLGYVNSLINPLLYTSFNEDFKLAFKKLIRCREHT

NanoBRET Fold Response (FZD6; FZD6, 0.1μM): 1.01
NanoBRET Fold Response (FZD6; FZD6, 1μM): 0.35
NanoBRET Fold Response (GRM5; 0.1μM): 1.01
NanoBRET Fold Response (GRM5; 1μM): 0.97
NanoBRET Fold Response (P2RY13; P2RY13, 0.1μM): 1.93
NanoBRET Fold Response (P2RY13; P2RY13, 1μM): 1.83
NanoBRET Fold Response (HTR1E; HTR1E, 0.1μM): 0.94
NanoBRET Fold Response (HTR1E; HTR1E, 1μM): 0.96
Structure (SMILES): CCOC(=O)c1cc(C#N)c(N2CCC(C(=O)NS(=O)(=O)Cc3ccccc3/C=C/C(=O)NCCNC(=O)CCc3ccc4n3[B-](F)(F)[N+]3=C(c5ccc[nH]5)C=CC3=C4)CC2)nc1C [AZD1283-1-NB590]

NanoBRET Fold Response (FZD6; FZD6, tracer 0.1μM): 1.03
NanoBRET Fold Response (FZD6; FZD6, tracer 1μM): 1.03
NanoBRET Fold Response (GRM5; tracer 0.1μM): 1.01
NanoBRET Fold Response (GRM5; tracer 1μM): 0.98
NanoBRET Fold Response (P2RY13; P2RY13, tracer 0.1μM): 0.97
NanoBRET Fold Response (P2RY13; P2RY13, tracer 1μM): 1.02
NanoBRET Fold Response (HTR1E; HTR1E, tracer 0.1μM): 0.93
NanoBRET Fold Response (HTR1E; HTR1E, tracer 1μM): 1.06
Structure (SMILES): N#CN=C(NCCCOc1cccc(CN2CCCCC2)c1)NCCNC(=O)CCOCCOCCOCCOCCNC(=O)CCc1ccc2n1[B-](F)(F)[N+]1=C(c3ccc[nH]3)C=CC1=C2 [Aminopotentidine-2-NB590]

Structure (SMILES): CN(C)CCC=C1c2ccccc2CCc2ccc(C(=O)NCCNC(=O)CCOCCOCCOCCOCCNC(=O)CCc3ccc4n3[B-](F)(F)[N+]3=C(c5ccc[nH]5)C=CC3=C4)cc21 [Amitriptyline-a-2-NB590]
NanoBRET Fold Response (FZD6; tracer at 0.1μM): 1.10
NanoBRET Fold Response (FZD6; tracer at 1μM): 1.03
NanoBRET Fold Response (P2RY13; tracer at 0.1μM): 1.09
NanoBRET Fold Response (P2RY13; tracer at 1μM): 0.85
NanoBRET Fold Response (HTR1E; tracer at 0.1μM): 1.04
NanoBRET Fold Response (HTR1E; tracer at 1μM): 1.00

Structure (SMILES): CN(C)CCC=C1c2ccccc2CCc2ccc(C(=O)NCCNC(=O)CCOCCOCCOCCOCCNC(=O)CCc3ccc4n3[B-](F)(F)[N+]3=C(c5ccc[nH]5)C=CC3=C4)cc21 [Amitriptyline-b-2-NB590]
NanoBRET Fold Response (FZD6; [1]): 1.00
NanoBRET Fold Response (FZD6; tracer at 1μM): 0.98
NanoBRET Fold Response (GRM5; tracer 0.1μM): 1.05
NanoBRET Fold Response (GRM5; tracer 1μM): 1.02
NanoBRET Fold Response (P2RY13; [1]): 1.08
NanoBRET Fold Response (P2RY13; [2]): 0.96
NanoBRET Fold Response (HTR1E; [1]): 1.01
NanoBRET Fold Response (HTR1E; [2]): 0.95

Structure (SMILES): CN(CCC=C1c2ccccc2CCc2ccccc21)C(=O)CCOCCOCCOCCOCCNC(=O)CCc1ccc2n1[B-](F)(F)[N+]1=C(c3ccc[nH]3)C=CC1=C2 [Amitriptyline-e-2-NB590]
NanoBRET Fold Response (FZD6; tracer at 1μM): 1.09
NanoBRET Fold Response (HTR1E; tracer at 1μM): 0.96
